In patent US9145351B2, “Azole derivatives, methods for producing the same, intermediate thereof, agro-horticultural agents” (KUREHA CORPORATION, priority 2009, dated 2015):

Key:
[1] = tested on: Septoria tritici; assay: Assay for fungicidal effect on Septoria tritici, plate medium 0.02 mg/L (Experimental Example 7); assay type: cell-based; conditions: Zymoseptoria tritici, read-out: grade (growth inhibition grade)
Excerpt: In this Experimental Example, the fungicidal effects of the inventive compounds on a phytopathogenic fungi, Septoria tritici were examined and compared to the Comparative Compound (3) described in Patent Literature 1 (JPA01-93574) by the methods described below. […] The subject microorganism previously cultured on a plate medium was cut out using a cork borer whose diameter was 4 mm, and inoculated to the test compound-containing plate medium described above. […] The growth degree of the microorganism on the test compound-containing plate medium thus observed was compared with the growth degree of the microorganism in the untreated group, and % mycelial growth inhibition was calculated by the following equation. R=100(dc−dt)/dc wherein R=% mycelial extension inhibition, dc=flora diameter in untreated plate, dt=flora diameter in treated plate. The results obtained as described above were evaluated as one of the 5 grades according to the following criteria. <Growth Inhibition Grade> […]

[2] = tested on: Puccinia recondita; assay: Efficacy test against wheat brown rust, 2 mg/L (Experimental Example 8); assay type: in vivo; design: key: 0: No onset; 0.5: Less than 1%; 1% or higher and less than 5%; 2: 5% or higher and less than 10%; 10% or higher and less than 30%; 4: 30% or higher and less than 50%; 50% or higher; conditions: sprayed at 1,000 L/ha, concentration printed 0.02 mg/L, 9 to 14 days after inoculation
Procedure: Onto a wheat plant (variety: […] The sprayed leaves were air-dried, and inoculated with spore suspension of Puccinia recondita (adjusted at 200 spores/vision, […] was added at 60 ppm) by spraying, and kept at 25 degrees C. and a high humidity for 48 hours. Thereafter, the plant was kept in a greenhouse. Nine to 14 days after inoculation, the wheat brown rust lesion degree was investigated, and the protective value was calculated by the following equation. Protective value (%)=(1-lesion degree in sprayed plot/lesion degree in unsprayed plot)×100

SMILES | inhibition at 0.02 µg/mL [1] [%] | degree (wheat brown rust lesion degree) [2]
C[C@]1(CCl)CC[C@@H](Cc2ccccc2)[C@]1(O)Cn1cncn1 (racemic) [Compound I-73, (1RS,2SR,5SR)-2-chloromethyl-5-benzyl-2-methyl-1-(1H-1,2,4-triazol-1-ylmethyl)cyclopentanol] | > 80 | 
C[C@]1(CCl)CC[C@@H](Cc2ccc(F)cc2)[C@]1(O)Cn1cncn1 (racemic) [Compound I-77, (1RS,2SR,5SR)-2-chloromethyl-5-(4-fluorobenzyl)-2-methyl-1-(1H-1,2,4-triazol-1-ylmethyl)cyclopentanol] | > 80 | 0
